Test results published in ChEMBL document CHEMBL1811886 (J Med Chem, 2011).

Legend:
Spleen = assay: Clearance in Sprague-Dawley rat spleen at 10 mg/kg, po administered as single dose after 24 hrs by LC-MS/MS analysis; type: ADME, organism-based; design: dose 10 mg/kg, route oral; conditions: in vivo
[1] = Metabolic stability of compound in mouse liver microsomes assessed as half life; type: ADME, Microsome
[2] = Volume of distribution in Beagle dog at 1 mg/kg, iv after 6 to 24 hrs by LC-MS/MS analysis; type: ADME, organism-based, Canis lupus familiaris; design: dose 1 mg/kg, route intravenous; conditions: in vivo
[3] = Cmax in fasted Sprague-Dawley rat at 3 mg/kg, po after 6 to 24 hrs by LC-MS/MS analysis; type: ADME, organism-based; design: dose 3 mg/kg, route oral; conditions: in vivo
[4] = Metabolic stability of compound in human liver microsomes assessed as half life; type: ADME, Microsome
[5] = Plasma protein binding in Beagle dog after 1 hr by LC/MS/MS analysis; type: ADME, cell-free, Canis lupus familiaris; conditions: read-out: PPB (converted)
Cytochrome P450 1A2 = Cytochrome P450 1A2 (Homo sapiens, UniProt P05177); assay: Inhibition of CYP1A2; type: ADME
Sequence of Cytochrome P450 1A2 (P05177 whole entry): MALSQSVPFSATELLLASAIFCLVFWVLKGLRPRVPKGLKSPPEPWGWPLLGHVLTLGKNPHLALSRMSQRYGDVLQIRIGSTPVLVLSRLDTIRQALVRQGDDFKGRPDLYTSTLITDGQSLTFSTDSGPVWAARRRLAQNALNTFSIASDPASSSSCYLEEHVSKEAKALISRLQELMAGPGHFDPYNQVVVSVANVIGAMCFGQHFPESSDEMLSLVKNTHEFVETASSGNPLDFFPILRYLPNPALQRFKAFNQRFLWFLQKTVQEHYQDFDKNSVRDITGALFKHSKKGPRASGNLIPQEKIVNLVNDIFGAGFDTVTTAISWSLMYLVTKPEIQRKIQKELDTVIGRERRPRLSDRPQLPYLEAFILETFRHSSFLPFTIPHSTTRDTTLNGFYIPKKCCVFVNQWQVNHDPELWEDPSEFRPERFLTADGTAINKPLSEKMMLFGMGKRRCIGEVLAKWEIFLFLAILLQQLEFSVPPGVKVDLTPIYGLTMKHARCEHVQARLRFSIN

Liver = assay: Clearance in Sprague-Dawley rat liver at 10 mg/kg, po administered as single dose after 24 hrs by LC-MS/MS analysis; type: ADME, organism-based; design: dose 10 mg/kg, route oral; conditions: in vivo
[6] = Cmax in cynomolgus monkey at 1 mg/kg, po after 6 to 24 hrs by LC-MS/MS analysis; type: ADME, organism-based, Macaca fascicularis; design: dose 1 mg/kg, route oral; conditions: in vivo
Canis familiaris = assay: Cmax in Beagle dog at 3 mg/kg, po after 6 to 24 hrs by LC-MS/MS analysis; type: ADME, organism-based, Canis lupus familiaris; design: dose 3 mg/kg, route oral; conditions: in vivo
[7] = Metabolic stability of compound in rat liver microsomes assessed as half life; type: ADME, Microsome
Kidney = assay: Clearance in Sprague-Dawley rat kidney at 10 mg/kg, po administered as single dose after 24 hrs by LC-MS/MS analysis; type: ADME, organism-based; design: dose 10 mg/kg, route oral; conditions: in vivo
[8] = Plasma protein binding in rat after 1 hr by LC/MS/MS analysis; type: ADME, cell-free; conditions: read-out: PPB (converted)
[9] = Terminal half life in cynomolgus monkey at 1 mg/kg, iv after 6 to 24 hrs by LC-MS/MS analysis; type: ADME, organism-based, Macaca fascicularis; design: dose 1 mg/kg, route intravenous; conditions: in vivo, read-out: beta t1/2 (converted)
[10] = Volume of distribution in cynomolgus monkey at 1 mg/kg, iv after 6 to 24 hrs by LC-MS/MS analysis; type: ADME, organism-based, Macaca fascicularis; design: dose 1 mg/kg, route intravenous; conditions: in vivo
[11] = AUC in cynomolgus monkey at 1 mg/kg, po after 6 to 24 hrs by LC-MS/MS analysis; type: ADME, organism-based, Macaca fascicularis; design: dose 1 mg/kg, route oral; conditions: plasma
[12] = AUC in fasted Sprague-Dawley rat at 3 mg/kg, po after 6 to 24 hrs by LC-MS/MS analysis; type: ADME, organism-based; design: dose 3 mg/kg, route oral; conditions: plasma
[13] = Volume of distribution in fasted Sprague-Dawley rat at 1 mg/kg, iv after 6 to 24 hrs by LC-MS/MS analysis; type: ADME, organism-based; design: dose 1 mg/kg, route intravenous; conditions: in vivo
[14] = AUC in Beagle dog at 3 mg/kg, po after 6 to 24 hrs by LC-MS/MS analysis; type: ADME, organism-based, Canis lupus familiaris; design: dose 3 mg/kg, route oral; conditions: plasma
Brain = assay: Clearance in Sprague-Dawley rat brain at 10 mg/kg, po administered as single dose after 24 hrs by LC-MS/MS analysis; type: ADME, organism-based; design: dose 10 mg/kg, route oral; conditions: in vivo
Cytochrome P450 3A4 = Cytochrome P450 3A4 (Homo sapiens, UniProt P08684); assay: Inhibition of CYP3A4; type: ADME
Sequence of Cytochrome P450 3A4 (P08684 whole entry): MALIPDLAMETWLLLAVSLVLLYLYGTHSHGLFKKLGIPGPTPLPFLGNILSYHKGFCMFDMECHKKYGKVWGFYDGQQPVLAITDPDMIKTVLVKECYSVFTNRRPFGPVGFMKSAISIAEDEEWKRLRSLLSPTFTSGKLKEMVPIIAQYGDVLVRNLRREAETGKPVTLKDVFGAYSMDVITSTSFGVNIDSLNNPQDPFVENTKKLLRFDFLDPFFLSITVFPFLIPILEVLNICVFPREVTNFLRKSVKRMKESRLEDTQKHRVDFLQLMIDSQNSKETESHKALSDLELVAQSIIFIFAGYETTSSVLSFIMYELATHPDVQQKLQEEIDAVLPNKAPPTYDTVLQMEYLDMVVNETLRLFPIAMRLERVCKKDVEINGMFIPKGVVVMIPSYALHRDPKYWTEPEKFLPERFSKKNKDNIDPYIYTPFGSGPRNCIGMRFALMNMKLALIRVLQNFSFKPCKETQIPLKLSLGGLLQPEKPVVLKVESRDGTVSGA

[15] = Terminal half life in Beagle dog at 3 mg/kg, po after 6 to 24 hrs by LC-MS/MS analysis; type: ADME, organism-based, Canis lupus familiaris; design: dose 3 mg/kg, route oral; conditions: in vivo, read-out: beta t1/2 (converted)
[16] = Oral bioavailability in fasted Sprague-Dawley rat at 3 mg/kg, po after 6 to 24 hrs by LC-MS/MS analysis; type: ADME, organism-based; conditions: in vivo
[17] = Ratio of drug uptake in brain to plasma of Beagle dog at 5 mg/kg, po after 6 to 24 hrs by LC-MS/MS analysis; type: ADME, organism-based, Canis lupus familiaris; design: dose 5 mg/kg, route oral; conditions: read-out: BPR
Lung = assay: Clearance in Sprague-Dawley rat lung at 10 mg/kg, po administered as single dose after 24 hrs by LC-MS/MS analysis; type: ADME, organism-based; design: dose 10 mg/kg, route oral; conditions: in vivo
Plasma = assay: Clearance in Sprague-Dawley rat plasma at 10 mg/kg, po administered as single dose after 24 hrs by LC-MS/MS analysis; type: ADME, organism-based; design: dose 10 mg/kg, route oral; conditions: in vivo
[18] = Terminal half life in fasted Sprague-Dawley rat at 1 mg/kg, iv after 6 to 24 hrs by LC-MS/MS analysis; type: ADME, organism-based; design: dose 1 mg/kg, route intravenous; conditions: in vivo, read-out: beta t1/2 (converted)
[19] = Clearance in cynomolgus monkey at 1 mg/kg, iv after 6 to 24 hrs by LC-MS/MS analysis; type: ADME, organism-based, Macaca fascicularis; design: dose 1 mg/kg, route intravenous; conditions: in vivo
Cytochrome P450 2C19 = Cytochrome P450 2C19 (Homo sapiens, UniProt P33261); assay: Inhibition of CYP2C19; type: ADME
Sequence of Cytochrome P450 2C19 (P33261 whole entry): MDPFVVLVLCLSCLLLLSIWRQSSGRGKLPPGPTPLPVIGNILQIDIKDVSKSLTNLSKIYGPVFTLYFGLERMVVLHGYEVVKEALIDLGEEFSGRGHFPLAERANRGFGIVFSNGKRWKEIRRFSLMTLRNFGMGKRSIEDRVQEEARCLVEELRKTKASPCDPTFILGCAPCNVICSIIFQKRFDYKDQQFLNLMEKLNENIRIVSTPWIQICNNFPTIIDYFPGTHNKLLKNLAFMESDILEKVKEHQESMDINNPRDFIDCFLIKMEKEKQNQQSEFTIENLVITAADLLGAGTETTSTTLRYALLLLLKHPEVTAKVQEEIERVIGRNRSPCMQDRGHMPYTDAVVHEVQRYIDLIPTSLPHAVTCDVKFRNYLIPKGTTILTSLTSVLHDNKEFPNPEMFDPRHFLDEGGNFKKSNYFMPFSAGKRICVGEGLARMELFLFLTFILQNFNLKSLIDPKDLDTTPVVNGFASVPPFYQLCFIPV

[20] = Metabolic stability of compound in dog liver microsomes assessed as compound remaining at 40 mins; type: ADME, Canis lupus familiaris, Microsome; conditions: read-out: Stability
[21] = Metabolic stability of compound in rat liver microsomes assessed as compound remaining at 40 mins; type: ADME, Microsome; conditions: read-out: Stability
Heart = assay: Clearance in Sprague-Dawley rat heart at 10 mg/kg, po administered as single dose after 24 hrs by LC-MS/MS analysis; type: ADME, organism-based; design: dose 10 mg/kg, route oral; conditions: in vivo
[22] = Systemic clearance in fasted Sprague-Dawley rat at 1 mg/kg, iv after 6 to 24 hrs by LC-MS/MS analysis; type: ADME, organism-based; design: dose 1 mg/kg, route intravenous; conditions: in vivo
[23] = Terminal half life in cynomolgus monkey at 1 mg/kg, po after 6 to 24 hrs by LC-MS/MS analysis; type: ADME, organism-based, Macaca fascicularis; design: dose 1 mg/kg, route oral; conditions: in vivo, read-out: beta t1/2 (converted)
[24] = Oral bioavailability in Beagle dog at 3 mg/kg after 6 to 24 hrs by LC-MS/MS analysis; type: ADME, organism-based, Canis lupus familiaris; conditions: in vivo
[25] = Metabolic stability of compound in dog liver microsomes assessed as half life; type: ADME, Canis lupus familiaris, Microsome
[26] = Metabolic stability of compound in mouse liver microsomes assessed as compound remaining at 40 mins; type: ADME, Microsome; conditions: read-out: Stability
[27] = Clearance in Beagle dog at 1 mg/kg, iv after 6 to 24 hrs by LC-MS/MS analysis; type: ADME, organism-based, Canis lupus familiaris; design: dose 1 mg/kg, route intravenous; conditions: in vivo
Cytochrome P450 2D6 = Cytochrome P450 2D6 (Homo sapiens, UniProt P10635); assay: Inhibition of CYP2D6; type: ADME
Sequence of Cytochrome P450 2D6 (P10635 whole entry): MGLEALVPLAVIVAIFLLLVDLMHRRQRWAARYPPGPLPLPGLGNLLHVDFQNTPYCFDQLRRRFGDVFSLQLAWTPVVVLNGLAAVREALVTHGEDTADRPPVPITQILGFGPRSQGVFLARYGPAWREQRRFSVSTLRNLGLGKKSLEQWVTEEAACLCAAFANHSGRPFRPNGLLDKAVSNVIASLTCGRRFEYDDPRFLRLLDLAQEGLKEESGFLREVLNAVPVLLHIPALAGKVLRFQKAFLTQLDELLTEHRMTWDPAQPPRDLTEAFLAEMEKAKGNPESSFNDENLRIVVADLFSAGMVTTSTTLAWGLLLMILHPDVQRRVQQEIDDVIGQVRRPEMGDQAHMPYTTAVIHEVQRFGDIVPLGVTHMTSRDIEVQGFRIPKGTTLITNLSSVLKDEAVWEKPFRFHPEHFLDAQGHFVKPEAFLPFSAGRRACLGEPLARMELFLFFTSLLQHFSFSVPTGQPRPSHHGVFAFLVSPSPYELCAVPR

[28] = Ratio of drug uptake in brain to plasma of fasted Sprague-Dawley rat at 1 mg/kg, iv after 6 to 24 hrs by LC-MS/MS analysis; type: ADME, organism-based; design: dose 1 mg/kg, route intravenous; conditions: read-out: BPR
Cytochrome P450 2C9 = Cytochrome P450 2C9 (Homo sapiens, UniProt P11712); assay: Inhibition of CYP2C9; type: ADME
Sequence of Cytochrome P450 2C9 (P11712 whole entry): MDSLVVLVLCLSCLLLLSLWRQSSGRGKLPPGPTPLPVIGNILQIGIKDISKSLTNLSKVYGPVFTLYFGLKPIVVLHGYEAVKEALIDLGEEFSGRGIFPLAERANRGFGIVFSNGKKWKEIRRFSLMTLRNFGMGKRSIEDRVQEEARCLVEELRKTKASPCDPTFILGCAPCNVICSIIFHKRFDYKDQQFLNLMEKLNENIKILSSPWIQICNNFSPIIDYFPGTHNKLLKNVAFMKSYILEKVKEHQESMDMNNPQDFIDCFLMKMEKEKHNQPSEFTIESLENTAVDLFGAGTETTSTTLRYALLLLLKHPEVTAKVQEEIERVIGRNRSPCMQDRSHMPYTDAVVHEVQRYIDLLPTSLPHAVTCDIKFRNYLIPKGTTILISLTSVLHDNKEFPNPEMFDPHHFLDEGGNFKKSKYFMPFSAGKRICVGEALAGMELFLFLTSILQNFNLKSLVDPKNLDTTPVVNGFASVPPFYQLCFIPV

[29] = Terminal half life in fasted Sprague-Dawley rat at 3 mg/kg, po after 6 to 24 hrs by LC-MS/MS analysis; type: ADME, organism-based; design: dose 3 mg/kg, route oral; conditions: in vivo, read-out: beta t1/2 (converted)
[30] = Oral bioavailability in cynomolgus monkey at 1 mg/kg after 6 to 24 hrs by LC-MS/MS analysis; type: ADME, organism-based, Macaca fascicularis; conditions: in vivo
[31] = Terminal half life in Beagle dog at 1 mg/kg, iv after 6 to 24 hrs by LC-MS/MS analysis; type: ADME, organism-based, Canis lupus familiaris; design: dose 1 mg/kg, route intravenous; conditions: in vivo, read-out: beta t1/2 (converted)
[32] = Fraction unbound in rat brain; type: ADME, tissue-based
[33] = Metabolic stability of compound in human liver microsomes assessed as compound remaining at 40 mins; type: ADME, Microsome; conditions: read-out: Stability
[34] = Plasma protein binding in human after 1 hr by LC/MS/MS analysis; type: ADME, cell-free; conditions: read-out: PPB (converted)

Which CL (Spleen) does the source give for `C[C@@H]1CCCN1CCCOc1ccc(-c2ccc(=O)[nH]n2)cc1.Cl` [IRDABISANT HYDROCHLORIDE] here?
Its CL is greater than 98%.

What about the half-life [1] of the same compound?
Its half-life is greater than 0.667 h.

What about the Vd [2] of the same compound?
The Vd was 3.5 L/kg.

What about the Cmax [3] of the same compound?
Its Cmax is 270 ng/mL.

What about the half-life [4] of the same compound?
The half-life was greater than 0.667 h.

And the fraction unbound at 1 h [5]?
Its fraction unbound at 1 h is 0.68.

And the IC50 (Cytochrome P450 1A2)?
Its IC50 is greater than 30 µM.

What about the CL (Liver) of the same compound?
The CL was greater than 98%.

What about the Cmax [6] of the same compound?
The Cmax was 760 ng/mL.

What about the Cmax (Canis familiaris) of the same compound?
The Cmax was 230 ng/mL.

What about the half-life [7] of the same compound?
Its half-life is greater than 0.667 h.

And the CL (Kidney)?
The CL was greater than 98%.

And the fraction unbound at 1 h [8]?
Its fraction unbound at 1 h is 0.61.

What about the half-life [9] of the same compound?
Its half-life is 5.4 h.

What about the Vd [10] of the same compound?
Its Vd is 3.8 L/kg.

What about the AUC [11] of the same compound?
Its AUC is 1920 ng·h/mL.

And the AUC [12]?
The AUC was 984 ng·h/mL.

What about the Vd [13] of the same compound?
Its Vd is 9.4 L/kg.

And the AUC [14]?
The AUC was 1190 ng·h/mL.

And the CL (Brain)?
Its CL is greater than 98%.

And the IC50 (Cytochrome P450 3A4)?
Its IC50 is greater than 30 µM.

And the half-life [15]?
The half-life was 2.7 h.

And the bioavailability [16]?
The bioavailability was 83%.

And the Kp [17]?
Its Kp is 2.4.

What about the CL (Lung) of the same compound?
The CL was greater than 98%.

And the CL (Plasma)?
Its CL is greater than 98%.

And the half-life [18]?
Its half-life is 2.6 h.

And the clearance [19]?
The clearance was 7.7 mL/min/kg.

What about the IC50 (Cytochrome P450 2C19) of the same compound?
The IC50 was greater than 30 µM.

What about the remaining at 40 min [20] of the same compound?
The remaining at 40 min was greater than 98%.

And the remaining at 40 min [21]?
The remaining at 40 min was greater than 98%.

And the CL (Heart)?
The CL was greater than 98%.

And the clearance [22]?
Its clearance is 42 mL/min/kg.

And the half-life [23]?
The half-life was 5 h.

And the bioavailability [24]?
The bioavailability was 22%.

What about the half-life [25] of the same compound?
The half-life was greater than 0.667 h.

What about the remaining at 40 min [26] of the same compound?
Its remaining at 40 min is greater than 98%.

What about the clearance [27] of the same compound?
The clearance was 13.2 mL/min/kg.

And the IC50 (Cytochrome P450 2D6)?
Its IC50 is greater than 30 µM.

What about the Kp [28] of the same compound?
The Kp was 2.6.

What about the IC50 (Cytochrome P450 2C9) of the same compound?
Its IC50 is greater than 30 µM.

And the half-life [29]?
Its half-life is 2.9 h.

And the bioavailability [30]?
Its bioavailability is 83%.

And the half-life [31]?
The half-life was 2.9 h.

What about the fraction unbound [32] of the same compound?
Its fraction unbound is 0.4.

And the remaining at 40 min [33]?
Its remaining at 40 min is greater than 98%.

And the fraction unbound at 1 h [34]?
Its fraction unbound at 1 h is 0.56.
